This note sets out measurements from ChEMBL document CHEMBL4371003, “Discovery of Novel Dual Mechanism of Action Src Signaling and Tubulin Polymerization Inhibitors (KX2-391 and KX2-361)” (J Med Chem, 2018).

One series deals with MES-SA/Dx5. Description: Antiproliferative activity against human MES-SA/Dx5 cells. It is filed as functional.
The next series relates to NCI/ADR-RES. The series is described as follows: Antiproliferative activity against human NCI/ADR-RES cells. Type of series: functional.
For the next series, the system named is HT-29. The series is described as follows: Antiproliferative activity against human HT-29 cells in presence of 1.5% FCS by BrdU incorporation assay. Type of series: functional, cell-based. In general terms: Incorporation of labelled thymidine or its analogues reports DNA synthesis.
The nature of series [1]: Oral bioavailability in mouse. Type of series: ADME, organism-based. The conditions noted are these: in vivo.
The subject of series [2] is KM12. Description: Antitumor activity against human KM12 cells. Type of series: functional, cell-based.
The test system of series [3] is NCI-H460. Description: Antitumor activity against human NCI-H460 cells. Type of series: functional, cell-based.
The next series concerns A549. Description: Antitumor activity against human A549 cells. It is filed as functional, cell-based.
Series [4] has as its target T1, Proto-oncogene tyrosine-protein kinase Src (Homo sapiens, UniProt P12931). Description: Inhibition of human recombinant pp60c-src expressed in baculovirus infected Sf9 insect cells using poly(Glu,Tyr) 4:1 as substrate after 15 mins.
Series [5] deals with T1, Proto-oncogene tyrosine-protein kinase Src. The series is described as follows: Inhibition of human c-SRC expressed in mouse NIH/3T3 cells assessed as reduction in cell growth. Type of series: cell-based.
A short description of series [6]: Inhibition of human c-SRC expressed in mouse NIH/3T3 cells assessed as reduction in BrdU incorporation after 24 hrs by ELISA.
A further series has as its system MOLT-4. Description: Antiproliferative activity against human MOLT4 cells. Type of series: functional.
The test system of a further series is Jurkat. The series is described as follows: Antiproliferative activity against human Jurkat cells. It is filed as functional.
For series [7], the system named is NCI-H460. The series is described as follows: Antiproliferative activity against human H460 cells. Type of series: functional. The conditions noted are these: Homo sapiens, NCI-H460.
The next series has as its system NCI-H226. The series is described as follows: Antiproliferative activity against human NCI-H226 cells. The conditions noted are these: Homo sapiens, NCI-H226. It is filed as functional.
The subject of a further series is SW-620. Description: Antiproliferative activity against human SW620 cells. It is filed as functional.
Another series relates to SW1088. Description: Antiproliferative activity against human SW1088 cells. It is filed as functional.
Series [8] deals with KM12. The series is described as follows: Antiproliferative activity against human KM12 cells by BrdU incorporation assay. Type of series: functional.

T1 sequence (P12931 2-536 limits assumed): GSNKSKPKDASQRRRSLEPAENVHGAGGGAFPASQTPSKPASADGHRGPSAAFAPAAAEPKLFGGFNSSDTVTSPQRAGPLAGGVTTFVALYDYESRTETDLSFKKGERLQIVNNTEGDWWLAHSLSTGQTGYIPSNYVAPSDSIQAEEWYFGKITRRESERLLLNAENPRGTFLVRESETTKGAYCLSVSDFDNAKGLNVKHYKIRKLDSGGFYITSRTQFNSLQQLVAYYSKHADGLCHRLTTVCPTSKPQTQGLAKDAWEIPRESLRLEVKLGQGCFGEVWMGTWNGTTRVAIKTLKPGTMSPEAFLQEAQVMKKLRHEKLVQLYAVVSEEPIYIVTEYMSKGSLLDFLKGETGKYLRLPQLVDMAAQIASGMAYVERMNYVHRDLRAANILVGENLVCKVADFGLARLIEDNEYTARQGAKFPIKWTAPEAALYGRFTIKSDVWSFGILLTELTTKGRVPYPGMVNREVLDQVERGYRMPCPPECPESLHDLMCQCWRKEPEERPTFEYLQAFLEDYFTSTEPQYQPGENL

In general, GI50 refers to the concentration giving 50% growth inhibition. For `CC(=O)O[C@H]1C(=O)[C@@]2(C)[C@H]([C@H](OC(=O)c3ccccc3)[C@]3(O)C[C@H](OC(=O)[C@H](O)[C@@H](NC(=O)c4ccccc4)c4ccccc4)C(C)=C1C3(C)C)[C@]1(OC(C)=O)CO[C@@H]1C[C@@H]2O` [PACLITAXEL], the GI50 was 1.8 µM in the series on MES-SA/Dx5 and 5.94 µM with NCI/ADR-RES.
What is called IC50 is the point on the concentration scale where inhibition reaches its midpoint. The term bioavailability denotes the share of a dose that reaches the circulation, judged against a reference dose that is usually intravenous. Higher therefore signals much systemic uptake. With `O=C(Cc1ccc(-c2ccccc2)cn1)NCc1cccc(F)c1`, in the series on HT-29, the IC50 was 0.338 µM. Besides, the bioavailability in series [1] is 4%.
With `O=C(NCc1cccc(O)c1)c1cc2cc(O)ccc2[nH]1`, the IC50 came out at 4.2 µM in the series on KM12 [2], 59 µM in the series on NCI-H460 [3] and 41 µM in the series with A549.
Turning to `COc1cc2c(Nc3c(Cl)ccc4c3OCO4)ncnc2cc1OCCCN1CCCCC1`, the IC50 is less than 0.004 µM in series [4] and 0.11 µM in [6]. In addition, the 50% growth inhibitory concentration (GI50) in series [5] came out at 0.087 µM.
Take `Cc1nc(Nc2ncc(C(=O)Nc3c(C)cccc3Cl)s2)cc(N2CCN(CCO)CC2)n1.O` [DASATINIB]: the concentration for 50% growth inhibition (GI50) worked out at 0.644 µM in the series with MOLT-4; 0.008 µM in the series with Jurkat; 0.09 µM with NCI-H460 [7]; 0.163 µM in the series on NCI-H226; 2.42 µM with SW-620 (Homo sapiens, SW-620); 0.898 µM in the series with SW1088. The same molecule showed a GI90 in the series with SW-620 of 2.94 µM.
Regarding `O=C(Cc1ccc(-c2ccccc2)cc1)NCc1cccc(F)c1`, in the series on HT-29, the IC50 came out at 0.877 µM. In the series on KM12 [8], this molecule came in with a GI50 of 0.41 µM.
